Values joined by “and” are separate entries in the source; they are usually repeats but may differ in a detail not shown here. Identical values can stand only once. Toxic doses and inconclusive results are not listed. Rule for the calls: active = survival T/C of 150% or more; inactive = T/C below 125% in these data. Non-standard residues stand in square brackets, D forms with d. Residues, ends and D or L forms follow the SMILES beside them. ξ: configuration not given here. ξF = NC(Cc1ccccc1)C(=O)O; Ac5c = NC1(C(=O)O)CCCC1
System: CD2F1 mice, L1210 leukemia ip, survival T/C
Assay: NCI In Vivo Anticancer Drug Screen. Data for tumor model L1210 Leukemia (intraperitoneal) in CD2F1 (CDF1) mice
Conditions: higher = longer survival
Summary of the method: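 Antitumor effect is scored in animals hosting a serially transplanted tumor. Values compare compound-dosed animals against vehicle-only controls as a simple quotient.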

[1] = endpoint: mean survival time, dose: 100.0 mg/kg/injection, schedule: Q01DX001 (ip), vehicle: saline
[2] = endpoint: mean survival time, dose: 200.0 mg/kg/injection, schedule: Q01DX001 (ip), vehicle: saline
[3] = endpoint: mean survival time, dose: 400.0 mg/kg/injection, schedule: Q01DX001 (ip), vehicle: saline
[4] = endpoint: median survival time, dose: 25.0 mg/kg/injection, schedule: Q01DX009 (ip), vehicle: Klucel (hydroxypropylcellulose) (HPC)
[5] = endpoint: median survival time, dose: 50.0 mg/kg/injection, schedule: Q01DX009 (ip), vehicle: Klucel (hydroxypropylcellulose) (HPC)
[6] = endpoint: mean survival time, dose: 100.0 mg/kg/injection, schedule: Q01DX001 (ip), vehicle: saline with Tween-80
[7] = endpoint: mean survival time, dose: 200.0 mg/kg/injection, schedule: Q01DX001 (ip), vehicle: saline with Tween-80
[8] = endpoint: mean survival time, dose: 400.0 mg/kg/injection, schedule: Q01DX001 (ip), vehicle: saline with Tween-80
[9] = endpoint: mean survival time, dose: 100.0 mg/kg/injection, schedule: Q04DX003 (ip), vehicle: saline with Tween-80
[10] = endpoint: mean survival time, dose: 200.0 mg/kg/injection, schedule: Q04DX003 (ip), vehicle: saline with Tween-80
[11] = endpoint: mean survival time, dose: 400.0 mg/kg/injection, schedule: Q04DX003 (ip), vehicle: saline with Tween-80
[12] = endpoint: mean survival time, dose: 100.0 mg/kg/injection, schedule: Q04DX002 (ip), vehicle: saline with Tween-80
[13] = endpoint: mean survival time, dose: 200.0 mg/kg/injection, schedule: Q04DX002 (ip), vehicle: saline with Tween-80
[14] = endpoint: mean survival time, dose: 100.0 mg/kg/injection, schedule: Q01DX009 (ip), vehicle: saline
[15] = endpoint: mean survival time, dose: 200.0 mg/kg/injection, schedule: Q01DX009 (ip), vehicle: saline

Measured: T/C

NC(=O)NC(S(=O)(=O)O)S(=O)(=O)O
inactive: [1] 96 % of control | [2] 101 % of control | [3] 101 % of control

CCN(CC)C(=S)S[Se](SC(=S)N(CC)CC)(SC(=S)N(CC)CC)SC(=S)N(CC)CC
inactive: endpoint: median survival time, dose: 3.12 mg/kg/injection, schedule: Q01DX009 (ip), vehicle: Klucel (hydroxypropylcellulose) (HPC) 103 % of control | endpoint: median survival time, dose: 6.25 mg/kg/injection, schedule: Q01DX009 (ip), vehicle: Klucel (hydroxypropylcellulose) (HPC) 101 % of control | endpoint: median survival time, dose: 12.5 mg/kg/injection, schedule: Q01DX009 (ip), vehicle: Klucel (hydroxypropylcellulose) (HPC) 95 % of control | [4] 93 % of control | [5] 93 % of control

Nc1nc2c(c(=O)[nH]1)N(Cc1c[nH]c(=O)[nH]c1=O)C(CNc1ccc(C(=O)NC(CCC(=O)O)C(=O)O)cc1)CN2 (stereo unspecified)
inactive: [6] 101 % of control | [7] 92 % of control | [8] 101 % of control

CC(=O)C1CCC2C3CC=C4CC(OC(=O)CCC(C)C)CCC4(C)C3CCC12C (stereo unspecified)
inactive: [9] 95 % of control | [10] 95 % of control | [11] 92 % of control

O=[N+]([O-])c1ccc(Cl)c(CCl)c1
inactive: endpoint: mean survival time, dose: 100.0 mg/kg/injection, schedule: Q01DX009 (ip), vehicle: saline with Tween-80 94 % of control | [9] 100 % of control | endpoint: mean survival time, dose: 200.0 mg/kg/injection, schedule: Q01DX009 (ip), vehicle: saline with Tween-80 93 % of control | [10] 100 % of control | [11] 102 % of control

CC(=O)NCc1cccc([N+](=O)[O-])c1
inactive: endpoint: mean survival time, dose: 25.0 mg/kg/injection, schedule: Q01DX005 (ip), vehicle: suspension in saline 97 % of control | endpoint: mean survival time, dose: 50.0 mg/kg/injection, schedule: Q01DX005 (ip), vehicle: suspension in saline 106 % of control | endpoint: mean survival time, dose: 100.0 mg/kg/injection, schedule: Q01DX005 (ip), vehicle: suspension in saline 105 % of control | endpoint: mean survival time, dose: 200.0 mg/kg/injection, schedule: Q01DX005 (ip), vehicle: suspension in saline 95 % of control | endpoint: mean survival time, dose: 400.0 mg/kg/injection, schedule: Q01DX005 (ip), vehicle: suspension in saline 95 % of control

CC(=O)OCC1OC(OC(C)=O)C(OC(C)=O)C(OC(C)=O)C1OC(C)=O (stereo unspecified)
inactive: endpoint: mean survival time, dose: 100.0 mg/kg/injection, schedule: Q04DX003 (ip), vehicle: saline 95 % of control | endpoint: mean survival time, dose: 200.0 mg/kg/injection, schedule: Q04DX003 (ip), vehicle: saline 98 % of control | endpoint: mean survival time, dose: 400.0 mg/kg/injection, schedule: Q04DX003 (ip), vehicle: saline 97 % of control

O=C(NNC(=S)Nc1cccc(C(F)(F)F)c1)c1ccncc1
inactive: endpoint: mean survival time, dose: 12.5 mg/kg/injection, schedule: Q01DX009 (ip), vehicle: saline with Tween-80 91 % of control | endpoint: mean survival time, dose: 25.0 mg/kg/injection, schedule: Q01DX009 (ip), vehicle: saline with Tween-80 93 % of control | endpoint: mean survival time, dose: 50.0 mg/kg/injection, schedule: Q01DX009 (ip), vehicle: saline with Tween-80 88 % of control | [12] 98 % of control | [13] 105 % of control

Cc1oc2ncnc(N)c2c1C
inactive: [9] 96 % of control | [10] 100 % of control | [11] 95 % of control

CCC1(O)C(=O)OCc2c1cc1n(c2=O)Cc2cc3ccc(C(=O)O)cc3nc2-1 (stereo unspecified)
inactive: endpoint: median survival time, dose: 10.0 mg/kg/injection, schedule: Q04DX002 (ip), vehicle: saline with Tween-80 108 % of control | endpoint: median survival time, dose: 10.0 mg/kg/injection, schedule: Q04DX002 (ip), vehicle: water 100 % of control | endpoint: median survival time, dose: 20.0 mg/kg/injection, schedule: Q04DX002 (ip), vehicle: saline with Tween-80 101 % of control | endpoint: median survival time, dose: 20.0 mg/kg/injection, schedule: Q04DX002 (ip), vehicle: water 109 % of control | endpoint: median survival time, dose: 40.0 mg/kg/injection, schedule: Q04DX002 (ip), vehicle: saline with Tween-80 108 % of control | endpoint: median survival time, dose: 40.0 mg/kg/injection, schedule: Q04DX002 (ip), vehicle: water 106 % of control | endpoint: median survival time, dose: 80.0 mg/kg/injection, schedule: Q04DX002 (ip), vehicle: saline with Tween-80 108 % of control | endpoint: median survival time, dose: 80.0 mg/kg/injection, schedule: Q04DX002 (ip), vehicle: water 106 % of control

C=Cn1ccnc1
inactive: endpoint: mean survival time, dose: 25.0 mg/kg/injection, schedule: Q01DX001 (ip), vehicle: saline with Tween-80 103 % of control | endpoint: mean survival time, dose: 50.0 mg/kg/injection, schedule: Q01DX001 (ip), vehicle: saline with Tween-80 100 % of control | [6] 114 % of control and 118 % of control | [7] 97 % of control | [8] 101 % of control

Oc1ccc(CC2=NCCc3cc(O)c(O)cc32)cc1O
inactive: endpoint: mean survival time, dose: 5.0 mg/kg/injection, schedule: Q01DX001 (ip), vehicle: saline 104 % of control | endpoint: mean survival time, dose: 10.0 mg/kg/injection, schedule: Q01DX001 (ip), vehicle: saline 98 % of control | endpoint: mean survival time, dose: 20.0 mg/kg/injection, schedule: Q01DX001 (ip), vehicle: saline 98 % of control | endpoint: mean survival time, dose: 40.0 mg/kg/injection, schedule: Q01DX001 (ip), vehicle: saline 100 % of control | endpoint: mean survival time, dose: 80.0 mg/kg/injection, schedule: Q01DX001 (ip), vehicle: saline 102 % of control

CC(=O)OC1CCCC2=CC(=O)CCC21C (stereo unspecified)
inactive: [9] 96 % of control | [10] 92 % of control

Cc1cc(Nc2ccc3c(c2)OCO3)c2cc3c(cc2n1)OCO3
inactive: [4] 105 % of control | [5] 121 % of control | endpoint: median survival time, dose: 100.0 mg/kg/injection, schedule: Q01DX009 (ip), vehicle: Klucel (hydroxypropylcellulose) (HPC) 94 % of control

Cc1ccc2snc(C(=O)O)c2c1[N+](=O)[O-]
inactive: [9] 98 % of control | [10] 104 % of control | [11] 103 % of control

CC(=O)Nc1ccc(S(=O)(=O)CBr)cc1
inactive: [1] 102 % of control | [2] 97 % of control | [3] 96 % of control

CCC1(C)C=CCC(C)(C)S1 (stereo unspecified)
inactive: [12] 102 % of control | [13] 91 % of control

CCOc1cccc(Cc2cn(Cc3ccccc3)c(=O)[nH]c2=O)c1
inactive: [9] 100 % of control | [10] 106 % of control | [11] 96 % of control

CC(C)CC(CC(C)C)=NNc1ccc([N+](=O)[O-])cc1[N+](=O)[O-]
inactive: [1] 100 % of control | [2] 103 % of control | [3] 100 % of control

C/C(=N/O)c1ccc(O)cc1
inactive: [9] 90 % of control | [10] 100 % of control | [11] 94 % of control

NN=C(c1ccccc1)c1ccccc1
inactive: endpoint: mean survival time, dose: 150.0 mg/kg/injection, schedule: Q04DX003 (ip), vehicle: Klucel (hydroxypropylcellulose) (HPC) 93 % of control | endpoint: mean survival time, dose: 225.0 mg/kg/injection, schedule: Q04DX003 (ip), vehicle: Klucel (hydroxypropylcellulose) (HPC) 95 % of control | endpoint: mean survival time, dose: 335.0 mg/kg/injection, schedule: Q04DX003 (ip), vehicle: Klucel (hydroxypropylcellulose) (HPC) 98 % of control

O=C(O)C/C=C/Br
inactive: endpoint: mean survival time, dose: 75.0 mg/kg/injection, schedule: Q01DX001 (ip), vehicle: saline 100 % of control | endpoint: mean survival time, dose: 150.0 mg/kg/injection, schedule: Q01DX001 (ip), vehicle: saline 100 % of control

[N-]=[N+]=CC(=O)NCC(=O)N/N=C/c1ccccn1
inactive: endpoint: mean survival time, dose: 100.0 mg/kg/injection, schedule: Q01DX009 (ip), vehicle: saline sonified 104 % of control | [9] 97 % of control | endpoint: mean survival time, dose: 200.0 mg/kg/injection, schedule: Q01DX009 (ip), vehicle: saline sonified 104 % of control | [10] 98 % of control | endpoint: mean survival time, dose: 400.0 mg/kg/injection, schedule: Q01DX009 (ip), vehicle: saline sonified 97 % of control | [11] 94 % of control

NC(Cc1ccccc1)C(=O)NC1(C(=O)O)CCCC1 (stereo unspecified) (H-[ξF]-[Ac5c]-OH)
inactive: endpoint: mean survival time, dose: 50.0 mg/kg/injection, schedule: Q01DX009 (ip), vehicle: saline 100 % of control | [14] 107 % of control | [15] 107 % of control

CCCC(O)C[N+](=O)[O-] (stereo unspecified)
inactive: [14] 104 % of control | [15] 111 % of control
